In ChEMBL document CHEMBL5104172, “Design, synthesis, and antibacterial activity of derivatives of Tryptophanyl-tRNA synthetase inhibitor indolmycin” (Eur J Med Chem, 2022):
In brackets after ≈: the same amount, converted by molar mass.

Legend:
Format in all cases: functional
[1] = test system: Staphylococcus epidermidis; assay: Antibacterial activity against methicillin-resistant Staphylococcus epidermidis MRSE17-4 measured by liquid dilution method
Staphylococcus aureus [2] = assay: Antibacterial activity against methicillin-resistant Staphylococcus aureus MRSA17-2 measured by liquid dilution method
Staphylococcus aureus [3] = assay: Antibacterial activity against methicillin-sensitive Staphylococcus aureus MSSA17-1 measured by liquid dilution method
[4] = test system: Staphylococcus epidermidis; assay: Antibacterial activity against methicillin-sensitive Staphylococcus epidermidis MSSE17-3 measured by liquid dilution method
[5] = test system: Staphylococcus epidermidis; assay: Antibacterial activity against methicillin-resistant Staphylococcus epidermidis MRSE17-2 measured by liquid dilution method
[6] = test system: Staphylococcus epidermidis; assay: Antibacterial activity against methicillin-sensitive Staphylococcus epidermidis MSSE17-2 measured by liquid dilution method
Staphylococcus aureus [7] = assay: Antibacterial activity against methicillin-resistant Staphylococcus aureus MRSA17-6 measured by liquid dilution method
Staphylococcus aureus [8] = assay: Antibacterial activity against methicillin-resistant Staphylococcus aureus ATCC 33591 measured by liquid dilution method
Enterococcus faecium [9] = assay: Antibacterial activity against Enterococcus faecium EFM17-1 measured by liquid dilution method
Staphylococcus aureus [10] = assay: Antibacterial activity against vancomycin-intermediate Staphylococcus aureus ATCC 700788 measured by liquid dilution method
Staphylococcus aureus [11] = assay: Antibacterial activity against vancomycin-intermediate Staphylococcus aureus ATCC 700699 measured by liquid dilution method
Staphylococcus aureus [12] = assay: Antibacterial activity against methicillin-resistant Staphylococcus aureus MRSA17-5 measured by liquid dilution method
[13] = test system: Staphylococcus epidermidis; assay: Antibacterial activity against methicillin-resistant Staphylococcus epidermidis MRSE17-6 measured by liquid dilution method
Staphylococcus aureus [14] = assay: Antibacterial activity against methicillin-sensitive Staphylococcus aureus MSSA17-2 measured by liquid dilution method
Staphylococcus aureus [15] = assay: Antibacterial activity against methicillin-resistant Staphylococcus aureus MRSA17-1 measured by liquid dilution method
Staphylococcus aureus [16] = assay: Antibacterial activity against methicillin-resistant Staphylococcus aureus ATCC 43300 measured by liquid dilution method
[17] = test system: Staphylococcus epidermidis; assay: Antibacterial activity against methicillin-sensitive Staphylococcus epidermidis MSSE17-1 measured by liquid dilution method
Enterococcus faecalis [18] = assay: Antibacterial activity against Enterococcus faecalis EFA17-1 measured by liquid dilution method
[19] = test system: Staphylococcus epidermidis; assay: Antibacterial activity against methicillin-resistant Staphylococcus epidermidis MRSE17-3 measured by liquid dilution method
Enterococcus faecium [20] = assay: Antibacterial activity against Enterococcus faecium EFM17-2 measured by liquid dilution method
Staphylococcus aureus [21] = assay: Antibacterial activity against methicillin-resistant Staphylococcus aureus MRSA17-3 measured by liquid dilution method
[22] = test system: Staphylococcus epidermidis; assay: Antibacterial activity against methicillin-resistant Staphylococcus epidermidis MRSE17-1 measured by liquid dilution method
Enterococcus faecalis [23] = assay: Antibacterial activity against Enterococcus faecalis ATCC 29212 measured by liquid dilution method
Staphylococcus aureus [24] = assay: Antibacterial activity against methicillin-sensitive Staphylococcus aureus MSSA17-3 measured by liquid dilution method
Staphylococcus aureus [25] = assay: Antibacterial activity against Staphylococcus aureus ATCC 29213 measured by liquid dilution method

SMILES	MIC [1] [µg/mL]	MIC (Staphylococcus aureus [2]) [µg/mL]	MIC (Staphylococcus aureus [3]) [µg/mL]	MIC [4] [µg/mL]	MIC [5] [µg/mL]	MIC [6] [µg/mL]	MIC (Staphylococcus aureus [7]) [µg/mL]	MIC (Staphylococcus aureus [8]) [µg/mL]	MIC (Enterococcus faecium [9]) [µg/mL]	MIC (Staphylococcus aureus [10]) [µg/mL]	MIC (Staphylococcus aureus [11]) [µg/mL]	MIC (Staphylococcus aureus [12]) [µg/mL]	MIC [13] [µg/mL]	MIC (Staphylococcus aureus [14]) [µg/mL]	MIC (Staphylococcus aureus [15]) [µg/mL]	MIC (Staphylococcus aureus [16]) [µg/mL]	MIC [17] [µg/mL]	MIC (Enterococcus faecalis [18]) [µg/mL]	MIC [19] [µg/mL]	MIC (Enterococcus faecium [20]) [µg/mL]	also measured
CNC1=NC(=O)[C@H]([C@H](C)c2c[nH]c3c(F)cccc23)O1	0.5 (≈ 1.82 µM)	0.5 (≈ 1.82 µM)	1 (≈ 3.63 µM)	4 (≈ 14.5 µM)	0.25 (≈ 0.908 µM)	4 (≈ 14.5 µM)	1 (≈ 3.63 µM)	8 (≈ 29.1 µM)	2 (≈ 7.27 µM)	4 (≈ 14.5 µM)	2 (≈ 7.27 µM)	1 (≈ 3.63 µM)	0.5 (≈ 1.82 µM)	0.5 (≈ 1.82 µM)	0.5 (≈ 1.82 µM)	4 (≈ 14.5 µM)	2 (≈ 7.27 µM)	2 (≈ 7.27 µM)	0.5 (≈ 1.82 µM)	4 (≈ 14.5 µM)	MIC (Staphylococcus aureus [21]): 1 µg/mL (≈ 3.63 µM); MIC [22]: 0.5 µg/mL (≈ 1.82 µM); MIC (Enterococcus faecalis [23]): 2 µg/mL (≈ 7.27 µM); MIC (Staphylococcus aureus [24]): 0.5 µg/mL (≈ 1.82 µM); MIC (Staphylococcus aureus [25]): 8 µg/mL (≈ 29.1 µM)
CNC1=NC(=O)[C@H]([C@H](C)c2c[nH]c3cccc(Br)c23)O1	2 (≈ 5.95 µM)	2 (≈ 5.95 µM)	2 (≈ 5.95 µM)	1 (≈ 2.97 µM)	2 (≈ 5.95 µM)	1 (≈ 2.97 µM)	2 (≈ 5.95 µM)	4 (≈ 11.9 µM)	> 128	2 (≈ 5.95 µM)	1 (≈ 2.97 µM)	2 (≈ 5.95 µM)	2 (≈ 5.95 µM)	4 (≈ 11.9 µM)	2 (≈ 5.95 µM)	2 (≈ 5.95 µM)	1 (≈ 2.97 µM)	> 128	0.5 (≈ 1.49 µM)	> 128	MIC (Staphylococcus aureus [21]): 1 µg/mL (≈ 2.97 µM); MIC [22]: 2 µg/mL (≈ 5.95 µM); MIC (Enterococcus faecalis [23]): > 128 µg/mL; MIC (Staphylococcus aureus [24]): 2 µg/mL (≈ 5.95 µM); MIC (Staphylococcus aureus [25]): 4 µg/mL (≈ 11.9 µM)
CNC1=NC(=O)[C@@H]([C@@H](C)c2c[nH]c3cccc(F)c23)O1	> 128	> 128	> 128	> 128	> 128	> 128	> 128	> 128	> 128	> 128	> 128	> 128	> 128	> 128	> 128	> 128	> 128	> 128	> 128	> 128	MIC (Staphylococcus aureus [21]): > 128 µg/mL; MIC [22]: > 128 µg/mL; MIC (Enterococcus faecalis [23]): > 128 µg/mL; MIC (Staphylococcus aureus [24]): > 128 µg/mL; MIC (Staphylococcus aureus [25]): > 128 µg/mL
CNC1=NC(=O)[C@@H]([C@@H](C)c2c[nH]c3cc(F)ccc23)O1	> 128	> 128	> 128	> 128	> 128	> 128	> 128	> 128	> 128	> 128	> 128	> 128	> 128	> 128	> 128	> 128	> 128	> 128	> 128	> 128	MIC (Staphylococcus aureus [21]): > 128 µg/mL; MIC [22]: > 128 µg/mL; MIC (Enterococcus faecalis [23]): > 128 µg/mL; MIC (Staphylococcus aureus [24]): > 128 µg/mL; MIC (Staphylococcus aureus [25]): > 128 µg/mL
CNC1=NC(=O)[C@@H]([C@@H](C)c2c[nH]c3cccc(Cl)c23)O1	64 (≈ 219 µM)	64 (≈ 219 µM)	64 (≈ 219 µM)	> 128	128 (≈ 439 µM)	> 128	64 (≈ 219 µM)	64 (≈ 219 µM)	> 128	128 (≈ 439 µM)	> 128	64 (≈ 219 µM)	64 (≈ 219 µM)	64 (≈ 219 µM)	64 (≈ 219 µM)	64 (≈ 219 µM)	> 128	> 128	> 128	> 128	MIC (Staphylococcus aureus [21]): 64 µg/mL (≈ 219 µM); MIC [22]: 128 µg/mL (≈ 439 µM); MIC (Enterococcus faecalis [23]): > 128 µg/mL; MIC (Staphylococcus aureus [24]): 64 µg/mL (≈ 219 µM); MIC (Staphylococcus aureus [25]): 64 µg/mL (≈ 219 µM)
CNC1=NC(=O)[C@@H]([C@@H](C)c2c[nH]c3cccc(C)c23)O1	> 128	> 128	> 128	> 128	> 128	> 128	> 128	> 128	> 128	> 128	> 128	> 128	> 128	> 128	> 128	> 128	> 128	> 128	> 128	> 128	MIC (Staphylococcus aureus [21]): > 128 µg/mL; MIC [22]: > 128 µg/mL; MIC (Enterococcus faecalis [23]): > 128 µg/mL; MIC (Staphylococcus aureus [24]): > 128 µg/mL; MIC (Staphylococcus aureus [25]): > 128 µg/mL
CNC1=NC(=O)[C@@H]([C@@H](C)c2c[nH]c3cccc(Br)c23)O1	128 (≈ 381 µM)	128 (≈ 381 µM)	128 (≈ 381 µM)	128 (≈ 381 µM)	128 (≈ 381 µM)	64 (≈ 190 µM)	128 (≈ 381 µM)	128 (≈ 381 µM)	> 128	128 (≈ 381 µM)	128 (≈ 381 µM)	128 (≈ 381 µM)	128 (≈ 381 µM)	128 (≈ 381 µM)	128 (≈ 381 µM)	128 (≈ 381 µM)	128 (≈ 381 µM)	> 128	> 128	> 128	MIC (Staphylococcus aureus [21]): 64 µg/mL (≈ 190 µM); MIC [22]: > 128 µg/mL; MIC (Enterococcus faecalis [23]): > 128 µg/mL; MIC (Staphylococcus aureus [24]): 128 µg/mL (≈ 381 µM); MIC (Staphylococcus aureus [25]): > 128 µg/mL
